Experimental data: patent US11535584B2, “Homovanillinic acid ester, in particular for creating a warm and/or pungent sensation” (SYMRISE AG, priority 2014, dated 2022)
Read-outs that look alike come from different tables or passages of the source.

How the values were obtained:
[1] = EFSA / Scientific Committee on Food opinion 2002; cited from earlier work
tasters [2] = test: Tasting of esters of homovanillinic acid: pungency score and profile (Example 5); assay type: in vivo; conditions: for Pungency assessed: scale of 1 (very weak)-9 (very strong)
tasters [3] = test: as above; assay type: in vivo; conditions: 25 ppm in 5% sugar solution; for Pungency assessed: scale of 1 (very weak)-9 (very strong), 4 tasters
Method: The substance to be tasted was dissolved in ethanol and the ethanolic solution was then diluted with 5% sugar solution (final concentration: 25 ppm). For the tasting, the oral cavity was rinsed and spat out by 4 tasters with approx. 5 ml of the sugar solution.

[4] = Warming effect compared to vanillyl butyl ether (Example 11); assay type: in vivo; conditions: 4-10 ppm in 5% sugar solution vs 10 ppm vanillyl butyl ether
Excerpt: Test solutions with 4-10 ppm ester of homovanillic acid were sensorially evaluated in a 5% sugar solution and were compared to a test solution of 10 ppm vanillyl butyl ether.

[5] = Tasting and sensorial assessment of isolated ethyl homovanillate (17) (Example 2); assay type: in vivo
Method: The primary reaction mixture is pre-fractionated using medium-pressure liquid chromatography (MPLC) (column material: Lewatit VP OC 1064; water/ethanol 3/1; v/v). Subsequently, further separation is carried out via preparative high-pressure liquid chromatography (pHPLC) (column: Phenomenex Luna C18 5μ 150×21.2 mm, flow rate 30 ml/min, detection 210 nm) in the isocratic mode (63% H2O, 37% MeOH). Final isolation of ethyl homovanillate (17) is carried out via semi-preparative high-pressure liquid chromatography (sPHPLC) in the gradient mode (column: YMC Triart C18 5μ 250×10 mm; A: H2O; B: MeOH; 0 min 65% A, 35% B; 25 min 40% A, 60% B; 30 min 100% B; flow rate 3 ml/min; detection: 250 nm). The obtained ethyl homovanillate (17) was subsequently freeze-dried and tasted and sensorially assessed at a dosage of 100 ppm in 5% sugar solution, 0.5% salt solution, 500 ppm caffeine solution and water.

testers [6] = test: Increase in the alcohol pungency of an ethanolic solution (Example 10); assay type: in vivo
Method: On the basis of a 5% sugar solution with 20% ethanol (example 1), different concentrations (10-100 ppm) of ethyl-2-(4-hydroxy-3-methoxyphenyl) acetate (17), polymethoxylated flavone PMF 60 (Miritz) and combinations (10-50 ppm) of ethyl-2-(4-hydroxy-3-methoxyphenyl) acetate (17) with polymethoxylated flavone PMF 60 (Miritz) (20 ppm) were compared with a second base solution (5% sugar solution with 40% ethanol) (Tab. 4). To this end, 5 testers rinsed their mouth with about 5 ml of the relevant solution to be tasted, spat out the solution and assessed the taste sensation.

testers [7] = test: Sensorial assessment of combinations with grains of paradise extract, nonivamide and capsicum extract (Example 9); assay type: in vivo; conditions: for Effect in combination of nonivamide, capsicum extract and ester: versus combinations without esters (examples 26* and 28*)
rat eyes = conditions: Szolcsanyi, Jancso-Gabor 1975; cited from earlier work
trained panelists = test: Time vs. intensity pungency profile compared with nonivamide (Example 8); assay type: in vivo; conditions: 25 ppm vs 0.5 ppm nonivamide in 5% sugar solution
Method: To obtain a time vs. intensity profile, trained panelists (n=8-10) rinsed their oral cavity with a gulp of a sample solution (5 ml of a 5% sugar solution). Then, the intensity of the characteristic pungency was assessed at defined time intervals on the basis of a scale without fixed graduation.

tasters [8] = test: Isointensity of esters compared to nonivamide and a capsicum extract (Example 6); assay type: in vivo; conditions: 10 ppm of the ester in 5% sugar solution
Method: The substance to be tasted was dissolved in ethanol and the ethanolic solution was then diluted with 5% sugar solution (final concentration: 10 ppm). As reference, capsicum extract with 1,000,000 SHU (0.3-10 ppm) and nonivamide (0.1-1 ppm) were prepared in 5% sugar solution in increasing concentration. For the tasting, the oral cavity was rinsed and spat out by 4 tasters with approx. 5 ml of the solution to be tasted and assessed against the reference series.

[9] = 50 and 100 ppm (examples 17 and 18)

COc1cc(CNC(=O)CCCC/C=C/C(C)C)ccc1O [capsaicin, N-(4-hydroxy-3-methoxybenzyl)-8-methyl-(6E)-nonenoic acid amide]
Evaluation of the genotoxic potential [1]: negative result

COc1cc(CC(=O)OC/C=C/c2ccccc2)ccc1O [compound 2, [(E)-Cinnamyl]-2-(4-hydroxy-3-methoxyphenyl) acetate]
Profile (tasters [2]): delayed effect, very pungent, slightly warming, somewhat mouthwatering | Pungency assessed (tasters [2]): 5-6

COc1cc(CC(=O)OC(C)C)ccc1O [compound 7, Isopropyl-2-(4-hydroxy-3-methoxyphenyl) acetate]
Profile (tasters [3]): Late onset, tingling, warming, pungent, somewhat delayed, not long-lasting, pleasant | Pungency assessed (tasters [3]): 3

CCC(C)OC(=O)Cc1ccc(O)c(OC)c1 (stereo not drawn) [compound 8, sec-Butyl-2-(4-hydroxy-3-methoxyphenyl) acetate]
Profile (tasters [3]): very delayed onset, tingling, mainly warming, gradually increasing pungency | Pungency assessed (tasters [3]): 3

COc1cc(CC(=O)OCC(C)C)ccc1O [compound 9, Isobutyl-2-(4-hydroxy-3-methoxyphenyl) acetate]
Profile (tasters [3]): quick onset of pungency, warming, slightly biting pungency | Pungency assessed (tasters [3]): 4-5 | Warming effect compared to vanillyl butyl ether [4]: warming effect similar to vanillyl butyl ether, but which lasted for a longer period

CCCCCCCOC(=O)Cc1ccc(O)c(OC)c1 [compound 14, Heptyl-2-(4-hydroxy-3-methoxyphenyl) acetate]
Profile (tasters [2]): slightly delayed effect, burning, pungent, warming | Pungency assessed (tasters [2]): 3

CCOC(=O)Cc1ccc(O)c(OC)c1 [compound 17, Ethyl-2-(4-hydroxy-3-methoxyphenyl) acetate]
Taste description ([5]; 100 ppm in 0.5% salt solution): Pungent | Taste description ([5]; 100 ppm in 5% sugar solution): Pungent, warming | Taste description ([5]; 100 ppm in water): Pungent, stinging, slightly warming | Effect of combination with polymethoxylated flavone PMF 60 (testers [6]; 10-50 ppm with 20 ppm PMF 60 in 5% sugar solution with 20% ethanol (examples 7-9)): an increase of the burning sensation was additionally generated, and an extension of these effects was also achieved | Effect on taste sensation of base solution (testers [6]; 10 ppm in 5% sugar solution with 20% ethanol (example 2)): an increase and an extension of the burning sensation in the mouth | Effect on taste sensation of base solution (testers [6]; 20 ppm and 50 ppm in 5% sugar solution with 20% ethanol): additional pungency effect | Nasal effect of combination with PMF 60 (testers [6]; compared to 5% sugar solution with 40% ethanol): did not show any nasal effect | Sensorially preferred concentration in combination with PMF 60 (testers [6]; with 20 ppm PMF 60 in 5% sugar solution with 20% ethanol): 20-50 ppm | Profile (tasters [3]): slightly warming, somewhat pungent | Pungency assessed (tasters [3]): 1-2 | Warming effect compared to vanillyl butyl ether [4]: milder warming effect | Additional effect in combination with capsicum extract at all concentrations (testers [7]; 2 and 5 ppm capsicum extract with 1,000,000 SHU): pleasantly warming effect, which remained even after the pungency sensation receded | Effect on pungency in combination with grains of paradise extract (testers [7]; 10 and 25 ppm with 30 ppm grains of paradise extract, 5% sugar solution (examples 2 and 3)): faster onset of the pungency | Assessment of the pungency sensation in combination with 2 ppm capsicum extract (testers [7]; [9]): pleasant and not long-lasting | Effect on pungency in combination with 2 ppm capsicum extract with 1,000,000 SHU (testers [7]; [9]): same intensifying and faster onsetting effect | Effect on pungency in combination with 5 ppm capsicum extract with 1,000,000 SHU (testers [7]; 50 and 100 ppm (examples 22 and 23)): quick decline in the pungency | Onset of pungency in combination with nonivamide (testers [7]; 50 and 100 ppm with 0.2 or 0.5 ppm nonivamide): faster onset of the pungency | Intensification of pungency in combination with nonivamide (testers [7]; 50 and 100 ppm with 0.2 or 0.5 ppm nonivamide (examples 7, 8, 12, 13)): the pungency of nonivamide was intensified at both of the tested concentrations, wherein this intensification corresponded to more than just the additive effect | Intensification of the pungency, 2 ppm versus 5 ppm capsicum extract (testers [7]; combination with capsicum extract with 1,000,000 SHU): significantly higher with 2 ppm capsicum extract with 1,000,000 SHU than with 5 ppm | Effect in combination of nonivamide, capsicum extract and ester (testers [7]): quicker decline in the pungency sensation as well as a warming effect

CCCOC(=O)Cc1ccc(O)c(OC)c1 [compound 18, Propyl-2-(4-hydroxy-3-methoxyphenyl) acetate]
Pain sensation in rat eyes (rat eyes): active | Profile (tasters [3]): weak and delayed pungency, gradually warming, tingling | Pungency assessed (tasters [3]): 4-5 | Warming effect compared to vanillyl butyl ether [4]: long-lasting warming effect, but which occurred at a comparatively later time

CCCCOC(=O)Cc1ccc(O)c(OC)c1 [compound 19, Butyl-2-(4-hydroxy-3-methoxyphenyl) acetate]
Decrease in pungency compared with nonivamide (trained panelists): considerably faster decrease in pungency | Onset of the pungency compared with nonivamide (trained panelists; identical total intensity): faster onset of the pungency | Concentration of capsicum extract with 1,000,000 SHU of comparable pungency (tasters [8]): ~4.5 ppm | Nonivamide concentration of comparable pungency (tasters [8]): ~0.3 ppm | Profile (tasters [3]): immediate pungency, quick decrease | Pungency assessed (tasters [3]): 7 | Warming effect compared to vanillyl butyl ether [4]: more marked warming effect | Intensification in combination with capsicum extract versus additive effect (testers [7]; 10 and 25 ppm with 2 or 5 ppm capsicum extract): the intensifications were more significant than just an additive effect | Effects in combination with capsicum extract (testers [7]; 10 and 25 ppm with 2 or 5 ppm capsicum extract (examples 19, 20, 24, 25)): the same effects were detected even at lower concentrations | Effect in combination of nonivamide, capsicum extract and ester (testers [7]): quicker decline in the pungency sensation as well as a warming effect

CCCCCCOC(=O)Cc1ccc(O)c(OC)c1 [compound 21, Hexyl-2-(4-hydroxy-3-methoxyphenyl) acetate]
Concentration of capsicum extract with 1,000,000 SHU of comparable pungency (tasters [8]): ~8.5 ppm | Nonivamide concentration of comparable pungency (tasters [8]): ~0.5 ppm | Profile (tasters [3]): clearly pungent, slightly delayed effect, warming, relatively fast decrease in pungency | Pungency assessed (tasters [3]): 9

COc1cc(CC(=O)OCCCc2ccccc2)ccc1O [compound 22, 3-Phenylpropyl-2-(4-hydroxy-3-methoxyphenyl) acetate]
Profile (tasters [2]; 2 ppm in 5% sugar solution): delayed effect, pungent, warming, slightly tingling | Pungency assessed (tasters [2]; 2 ppm in 5% sugar solution): 5

COc1cc(CC(=O)OCCCCc2ccccc2)ccc1O [compound 23, 4-Phenylbutyl-2-(4-hydroxy-3-methoxyphenyl) acetate]
Profile (tasters [2]; 2.5 ppm in 5% sugar solution): delayed effect, pungent, delayed warming, burning, slightly tingling | Pungency assessed (tasters [2]; 2.5 ppm in 5% sugar solution): 4-5

CCCCCCCCCCOC(=O)Cc1ccc(O)c(OC)c1 [decyl-2-(4-hydroxy-3-methoxyphenyl) acetate, reference compound]
Profile (tasters [3]): weakly pungent, delayed, pear-like and greasy-pulpy secondary effect, throat burns more than the tongue | Pungency assessed (tasters [3]): 2

COC(=O)Cc1ccc(O)c(OC)c1 [methyl ester of homovanillic acid]
Pain sensation in rat eyes (rat eyes): active

CCCCCCCCOC(=O)Cc1ccc(O)c(OC)c1 [octyl-2-(4-hydroxy-3-methoxy-phenyl) acetate, reference compound]
Pain sensation in rat eyes (rat eyes): active | Profile (tasters [3]): slow onset of pungency, late, delayed, greasy-pulpy secondary effect, burning | Pungency assessed (tasters [3]): 7
